Results reported in PMC8812735, “Discovery of triterpenoids as potent dual inhibitors of pancreatic lipase and human carboxylesterase 1” (Journal of Enzyme Inhibition and Medicinal Chemistry, 2022).
Read-outs that look alike come from different tables or passages of the source.

Key:
Pancreatic lipase (PL) = molecular target: T1, Pancreatic lipase (PL) (Sus scrofa, UniProt P00591); assay: Inhibition of PL-mediated 4-MUO hydrolysis; format: biochemical; settings: 4-MUO substrate, mean ± SD (n = 3)
T1 construct: purchased Sigma Aldrich type II, Lot.SLBN9099V
T1 sequence (P00591 1-450): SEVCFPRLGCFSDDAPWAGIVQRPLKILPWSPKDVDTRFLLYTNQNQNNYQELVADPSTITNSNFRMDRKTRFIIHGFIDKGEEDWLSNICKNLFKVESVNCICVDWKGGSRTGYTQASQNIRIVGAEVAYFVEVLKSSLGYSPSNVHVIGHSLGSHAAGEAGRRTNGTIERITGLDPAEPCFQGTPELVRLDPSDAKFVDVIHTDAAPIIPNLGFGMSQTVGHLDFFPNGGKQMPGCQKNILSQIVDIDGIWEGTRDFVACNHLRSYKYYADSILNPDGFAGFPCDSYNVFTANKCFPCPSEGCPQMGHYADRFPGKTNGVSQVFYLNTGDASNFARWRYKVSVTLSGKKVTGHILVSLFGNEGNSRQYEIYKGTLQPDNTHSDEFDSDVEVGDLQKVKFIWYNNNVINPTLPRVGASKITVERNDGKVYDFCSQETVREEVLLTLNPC
Protocol: In addition, the background fluorescence in the absence of an enzyme source (PL) (add the same amount of citrate-Na2HPO4 buffer) was measured. […] Then start the reaction by adding 2 µL of 4-MUO probe (3 µM, final concentration). The fluorescence signal of 4-MU (hydrolytic metabolite) was detected by multi-mode microplate reader (SpectraMax M4, Molecular Devices, Urstein, Austria) with continuous oscillation for 20 min and recorded and analysed at 60 s intervals. The excitation wavelength and emission wavelength of 4-MU were set at 340 nm and 460 nm, respectively, and the gain value was 500.
(§1) Subsequently, various concentrations of substrates (selected according to Km) and different concentrations of inhibitors were used to determine the corresponding reaction rate, and the second slope graph of the Lineweaver–Burk diagram was used as a function of the inhibitor to calculate the corresponding inhibition constant (Ki) value. All kinetic data were fitted by the following kinetic equations (a–c), for competitive (a), non-competitive (b) and mixed inhibition (c): (a) V=(VmaxS)/[Km(1+I/Ki)+S] (b) V=(VmaxS)/[(Km+S)×(1+I/Ki)] (c) V=(VmaxS)/[(Km+S)×(1+I/αKi)] where V is the hydrolytic velocity of the reaction, Vmax is the maximum velocity. S and I are substrate (4-MUO, NLMe) and inhibitor (compound 39/41) concentrations, respectively. Ki is the inhibition constant of the tested inhibitor against the target PL and hCES1A; Km is the Michaelis constant (the substrate concentration at half of the Vmax).
All measurements were made in triplicate and the data obtained in the experiment were shown as mean ± SD.

hCES1A = molecular target: T2, hCES1A (Homo sapiens, UniProt P23141); assay: Inhibition of hCES1A-mediated NLMe hydrolysis in human liver microsomes; format: biochemical
T2 construct: tissue Bioreclamation IVT lot No. X008067; host or cells: pooled human liver microsomes from 50 donors
T2 sequence (P23141 18-567): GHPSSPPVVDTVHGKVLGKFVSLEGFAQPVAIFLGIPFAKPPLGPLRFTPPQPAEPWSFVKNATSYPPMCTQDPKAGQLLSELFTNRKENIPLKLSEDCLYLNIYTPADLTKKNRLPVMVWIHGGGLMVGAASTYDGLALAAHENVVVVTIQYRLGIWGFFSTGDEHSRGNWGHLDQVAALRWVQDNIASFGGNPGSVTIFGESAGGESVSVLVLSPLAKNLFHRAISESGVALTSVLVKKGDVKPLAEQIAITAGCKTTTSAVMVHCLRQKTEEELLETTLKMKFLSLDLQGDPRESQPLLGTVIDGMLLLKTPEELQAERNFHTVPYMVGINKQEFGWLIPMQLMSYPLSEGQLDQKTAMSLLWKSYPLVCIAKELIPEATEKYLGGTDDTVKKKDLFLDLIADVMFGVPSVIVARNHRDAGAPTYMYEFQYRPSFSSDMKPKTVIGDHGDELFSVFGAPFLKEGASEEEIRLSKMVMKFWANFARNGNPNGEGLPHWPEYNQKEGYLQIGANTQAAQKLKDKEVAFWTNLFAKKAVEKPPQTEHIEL
Protocol: N-Alkylated D-luciferin methyl ester (NLMe), a Specific probe for hCES1A[45], was used for assessing the inhibitory effects for triterpenoids, and BNPP was used as a positive inhibitor of hCES1A. […] Then NLMe (2 µL, 0.15 mM) was added to start the reaction. After shaking the reaction in 37 °C incubator for 10 min, 50 µL of reaction solution was removed and mixed with LDR (50 µL) to terminate the reaction. A multi-mode microplate reader was used to detect the luminescence signal of NL (the hydrolysed metabolite of NLMe). The luminescence product of NL was measured at 580 nm (gain: 140). The final volume ratio of DMSO was less than 1% (V/V).
as §1
All measurements were made in triplicate and the data obtained in the experiment were shown as mean ± SD. The IC50 and Ki values of the compounds with strong inhibitory effect were evaluated by nonlinear regression with graphpad prism 7.0 software (GraphPad Software, Inc., La Jolla, CA).

[1] = NLMe substrate, HLM, mean ± SD (n = 3), read-out: IC50 (µM) hCES1A

SMILES	IC50 (Pancreatic lipase (PL))	IC50 (hCES1A; [1])	IC50 (hCES1A)
C=C(CC[C@@H](C(=O)O)[C@H]1[C@H](O)C[C@@]2(C)C3=C(CC[C@]12C)[C@@]1(C)CC[C@H](OC(C)=O)C(C)(C)[C@@H]1CC3)C(C)C [Compound 16, pachymic acid]	> 100 µM	–	–
C[C@H]1[C@H](C)CC[C@]2(C(=O)O)CC[C@]3(C)C(=CC[C@@H]4[C@@]5(C)C[C@@H](O)[C@H](O)C(C)(C)[C@@H]5CC[C@]43C)[C@H]12 [Compound 6, corosolic acid]	12.8 ± 1.44 µM	–	0.34 ± 0.04 µM
CC1(C)CCC2(C(=O)O)CCC3(C)C(=CCC4C5(C)CCC(=O)C(C)(C)C5CCC43C)C2C1 (stereo not drawn) [Compound 30]	7.51 ± 1.08 µM	0.047 ± 0.003 µM	–
C=C(C)[C@@H]1CC[C@]2(C(=O)O)CC[C@]3(C)[C@H](CC[C@@H]4[C@@]5(C)CC[C@H](O)C(C)(C)[C@@H]5CC[C@]43C)[C@@H]12 [Compound 14]	> 100 µM	–	–
CC1(C)CCC2(C(N)=O)CCC3(C)C(=CCC4C5(C)CCC(O)C(C)(C)C5CCC43C)C2C1 (stereo not drawn) [Compound 38]	7.83 ± 1.21 µM	0.48 ± 0.06 µM	–
CCCCCCCCCCC[C@@H](C[C@@H]1OC(=O)[C@H]1CCCCCC)OC(=O)[C@H](CC(C)C)NC=O [Compound 28, Orlistat, reference compound]	–	0.035 ± 0.003 µM	–
CC1(C)CCC2(CO)CCC3(C)C(=CCC4C5(C)CCC(O)C(C)(C)C5CCC43C)C2C1 (stereo not drawn) [Compound 37]	11.8 ± 1.6 µM	4.11 ± 0.77 µM	–
CC1(C)CC[C@]2(C(=O)O[C@@H]3O[C@H](CO)[C@@H](O)[C@H](O)[C@H]3O)CC[C@]3(C)C(=CC[C@@H]4[C@@]5(C)CC[C@H](O[C@@H]6O[C@H](C(=O)O)[C@@H](O)[C@H](O)[C@H]6O[C@@H]6O[C@H](CO)[C@@H](O)[C@H](O)[C@H]6O)C(C)(C)[C@@H]5CC[C@]43C)[C@@H]2C1 [Compound 26]	> 100 µM	–	–
CC(C)=CCCC(C)(OC1OC(CO)C(O)C(O)C1O)C1CCC2(C)C1C(O)CC1C3(C)CCC(O)C(C)(C)C3C(OC3OC(CO)C(O)C(O)C3OC3OC(CO)C(O)C(O)C3O)CC12C (stereo not drawn) [Compound 20]	29.7 ± 5.02 µM	–	–
CC(C)=CCC=C(C)C1CCC2(C)C1C(O)CC1C3(C)CCC(O)C(C)(C)C3C(OC3OC(CO)C(O)C(O)C3OC3OC(C)C(O)C(O)C3O)CC12C (stereo not drawn) [Compound 19]	74.5 ± 28.4 µM	–	–
CC(C)=CCC[C@](C)(O)[C@H]1CC[C@]2(C)[C@@H]1[C@H](O)C[C@@H]1[C@@]3(C)CC[C@H](O)C(C)(C)[C@@H]3[C@@H](O[C@@H]3O[C@H](CO)[C@@H](O)[C@H](O)[C@H]3O)C[C@]12C [Compound 24]	> 100 µM	–	–
CCCCCC(=O)OC1CCC2(C)C(CCC3(C)C2CC=C2C4CC(C)(C)CCC4(C(=O)O)CCC23C)C1(C)C (stereo not drawn) [Compound 35]	> 100 µM	1.82 ± 0.29 µM	–
C=C(C)[C@@H]1CC[C@]2(C)CC[C@]3(C)[C@H](CC[C@@H]4[C@@]5(C)CC[C@H](O)C(C)(C)[C@@H]5CC[C@]43C)[C@@H]12 [Compound 15]	> 100 µM	–	–
CC1(C)CC[C@]2(C(=O)O)[C@H](O)C[C@]3(C)C(=CC[C@@H]4[C@@]5(C)C[C@@H](O)[C@H](O)[C@@](C)(CO)[C@@H]5CC[C@]43C)[C@@H]2C1 [Compound 4, polygalacic acid]	> 100 µM	–	–
CC1(C)[C@@H](O)CC[C@]2(C)[C@H]3C(=O)C=C4[C@@H]5C[C@@](C)(C(=O)O)CC[C@]5(C)CC[C@@]4(C)[C@]3(C)CC[C@@H]12 [Compound 9, glycyrrhetic acid]	28.3 ± 9.47 µM	–	–
CC(C)=CCC[C@](C)(O[C@@H]1O[C@H](CO)[C@@H](O)[C@H](O)[C@H]1O)[C@H]1CC[C@]2(C)[C@@H]1[C@H](O)C[C@@H]1[C@@]3(C)CC[C@H](O)C(C)(C)[C@@H]3[C@@H](O[C@@H]3O[C@H](CO)[C@@H](O)[C@H](O)[C@H]3O[C@@H]3OC[C@@H](O)[C@H](O)[C@H]3O)C[C@]12C [Compound 27]	> 100 µM	–	–

More lines, main results first:

IC50 (Pancreatic lipase (PL))	IC50 (hCES1A; [1])	SMILES	IC50 (hCES1A)
6.16 ± 0.97 µM	0.04 ± 0.004 µM	C[C@H]1[C@H](C)CC[C@]2(C(=O)O)CC[C@]3(C)C(=CC[C@@H]4[C@@]5(C)CC[C@H](O)C(C)(C)[C@@H]5CC[C@]43C)[C@H]12 [Compound 5, ursolic acid]	–
> 100 µM	–	CC(C)=CCC[C@](C)(O)[C@H]1CC[C@]2(C)[C@@H]1[C@H](O)C[C@@H]1[C@@]3(C)CC[C@H](O)C(C)(C)[C@@H]3[C@@H](O[C@@H]3O[C@H](CO)[C@@H](O)[C@H](O)[C@H]3O[C@@H]3O[C@@H](C)[C@H](O)[C@@H](O)[C@H]3O)C[C@]12C [Compound 23]	–
> 100 µM	–	CC(C)=CC/C=C(\C)[C@H]1CC[C@]2(C)[C@@H]1[C@H](O)C[C@@H]1[C@@]3(C)CC[C@H](O)C(C)(C)[C@@H]3[C@@H](O[C@@H]3O[C@H](CO)[C@@H](O)[C@H](O)[C@H]3O)C[C@]12C [Compound 25]	–
> 100 µM	–	CC(CC(=O)C[C@@H](C)[C@H]1CC(=O)[C@@]2(C)C3=C(C(=O)C[C@]12C)[C@@]1(C)CC[C@H](O)C(C)(C)[C@@H]1C[C@@H]3O)C(=O)O (stereo partly drawn) [Compound 17, ganoderic acid B]	–
6.94 ± 1.37 µM	0.93 ± 0.18 µM	CC1CCC2(C(=O)O)CCC3(C)C(=CCC4C5(C)CCC(=O)C(C)(C)C5CCC43C)C2C1C (stereo not drawn) [Compound 40]	–
> 100 µM	–	CC(C)=CCC[C@](C)(O[C@@H]1O[C@H](CO)[C@@H](O)[C@H](O)[C@H]1O)[C@H]1CC[C@]2(C)[C@@H]1[C@H](O)C[C@@H]1[C@@]3(C)CC[C@H](O)C(C)(C)[C@@H]3[C@@H](O[C@@H]3O[C@H](CO)[C@@H](O)[C@H](O)[C@H]3O)C[C@]12C [Compound 22]	–
> 100 µM	–	CC(C)=CCC[C@](C)(O[C@@H]1O[C@H](CO)[C@@H](O)[C@H](O)[C@H]1O)[C@H]1CC[C@]2(C)[C@@H]1[C@H](O)C[C@@H]1[C@@]3(C)CC[C@H](O)C(C)(C)[C@@H]3[C@@H](O)C[C@]12C [Compound 18]	–
> 100 µM	–	C=C(C)[C@@H]1CC[C@]2(C=O)CC[C@]3(C)[C@H](CC[C@@H]4[C@@]5(C)CC[C@H](O)C(C)(C)[C@@H]5CC[C@]43C)[C@@H]12 [Compound 13]	–
> 100 µM	–	CC(C)=CCC[C@](C)(O[C@@H]1O[C@H](CO)[C@@H](O)[C@H](O)[C@H]1O)[C@H]1CC[C@]2(C)[C@@H]1[C@H](O)C[C@@H]1[C@@]3(C)CC[C@H](O)C(C)(C)[C@@H]3[C@@H](O[C@@H]3O[C@H](CO)[C@@H](O)[C@H](O)[C@H]3O[C@@H]3O[C@@H](C)[C@H](O)[C@@H](O)[C@H]3O)C[C@]12C [Compound 21]	–
> 100 µM	–	CC1(C)[C@@H](O[C@H]2O[C@H](C(=O)O)[C@@H](O)[C@H](O)[C@H]2O[C@@H]2O[C@H](C(=O)O)[C@@H](O)[C@H](O)[C@H]2O)CC[C@]2(C)[C@H]3C(=O)C=C4[C@@H]5C[C@@](C)(C(=O)O)CC[C@]5(C)CC[C@@]4(C)[C@]3(C)CC[C@@H]12 [Compound 10, glycyrrhizic acid]	–
